According to ChEMBL document CHEMBL3751755, “Developing steroidal aromatase inhibitors-an effective armament to win the battle against breast cancer” (Eur J Med Chem, 2015):

What was measured:
Aromatase [1] = biological target: T1, Aromatase (Homo sapiens, UniProt P11511); test: Competitive inhibition of human aromatase extracted from placental microsomes by Dixon plot analysis in presence of [1,2-3H]androstenedione
T1 sequence (P11511 whole entry): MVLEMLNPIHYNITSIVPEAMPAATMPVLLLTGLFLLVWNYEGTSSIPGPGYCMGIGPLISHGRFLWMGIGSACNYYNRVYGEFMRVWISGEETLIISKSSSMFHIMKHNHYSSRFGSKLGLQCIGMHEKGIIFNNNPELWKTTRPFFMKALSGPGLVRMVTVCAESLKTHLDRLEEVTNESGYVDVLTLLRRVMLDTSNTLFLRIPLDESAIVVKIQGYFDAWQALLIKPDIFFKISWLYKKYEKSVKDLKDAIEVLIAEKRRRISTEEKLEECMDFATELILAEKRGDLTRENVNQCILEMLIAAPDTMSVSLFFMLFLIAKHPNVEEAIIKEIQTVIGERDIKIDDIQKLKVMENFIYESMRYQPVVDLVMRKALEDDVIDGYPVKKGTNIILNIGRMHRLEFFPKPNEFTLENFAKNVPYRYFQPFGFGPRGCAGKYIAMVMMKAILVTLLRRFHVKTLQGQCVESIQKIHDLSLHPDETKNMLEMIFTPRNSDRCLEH

Aromatase [2] = biological target: T1, Aromatase; test: Inhibition of aromatase (unknown origin) at 50 uM
Aromatase [3] = biological target: T2, Aromatase (Rattus norvegicus, UniProt P22443); test: Inhibition of rat aromatase extracted from ovarian fraction using testosterone as substrate
T2 sequence (P22443 whole entry): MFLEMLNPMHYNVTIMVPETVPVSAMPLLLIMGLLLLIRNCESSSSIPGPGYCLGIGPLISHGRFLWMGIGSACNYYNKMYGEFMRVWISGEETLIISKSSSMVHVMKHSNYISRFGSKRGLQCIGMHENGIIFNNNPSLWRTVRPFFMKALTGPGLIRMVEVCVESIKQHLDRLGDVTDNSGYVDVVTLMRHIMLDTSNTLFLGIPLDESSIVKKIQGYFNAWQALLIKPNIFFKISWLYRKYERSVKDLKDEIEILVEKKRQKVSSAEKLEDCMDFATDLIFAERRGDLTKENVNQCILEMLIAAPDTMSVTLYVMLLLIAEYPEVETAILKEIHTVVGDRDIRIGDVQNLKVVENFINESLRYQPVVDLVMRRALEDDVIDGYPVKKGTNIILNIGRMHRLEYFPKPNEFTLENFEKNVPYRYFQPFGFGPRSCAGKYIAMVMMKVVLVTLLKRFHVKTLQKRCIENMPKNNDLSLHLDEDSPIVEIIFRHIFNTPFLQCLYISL

Aromatase [4] = biological target: T1, Aromatase; test: Inhibition of human aromatase extracted from placental microsomes
Aromatase [5] = biological target: T2, Aromatase; test: Inhibition of aromatase in denucleated ovarian fraction extracted from PMSG pretreated Wistar rat using testosterone as substrate at 10 uM by radioimmuno assay
Aromatase [6] = biological target: T1, Aromatase; test: Inhibition of human aromatase extracted from placental microsomes using [1-3H]androstenedione as substrate
Aromatase [7] = biological target: T1, Aromatase; test: Inhibition of human aromatase extracted from placental microsomes using [1beta-3H]androstenedione as substrate after 20 mins by scintillation counting analysis
Aromatase [8] = biological target: T1, Aromatase; test: Inhibition of human aromatase extracted from placental microsomes using [1beta,2beta-3H]androstenedione as substrate
Aromatase [9] = biological target: T1, Aromatase; test: Inhibition of human aromatase extracted from placental microsomes assessed as 3H2O formation from [1b,2b-3H] testosterone preincubated for 5 mins followed by protein addition measured at 7 to 21 mins by liquid scintillation counting analysis
Aromatase [10] = biological target: T2, Aromatase; test: Competitive inhibition of aromatase in ovarian fraction extracted from PMSG pretreated Wistar rat by double reciprocal plot analysis in presence of testosterone
Aromatase [11] = biological target: T1, Aromatase; test: Inhibition of aromatase (unknown origin); parameters: inhibition (INH): concentration or dose not given beside the values; conditions: human
Aromatase [12] = biological target: T1, Aromatase; test: Inhibition of human aromatase extracted from placental microsomes using [1beta-3H]androstenedione as substrate after 15 mins by scintillation counting analysis
Aromatase [13] = biological target: T2, Aromatase; test: Inhibition of aromatase in denucleated ovarian fraction extracted from PMSG pretreated Wistar rat by using testosterone as substrate after 15 mins by radio immuno assay
Aromatase [14] = biological target: T1, Aromatase; test: Inhibition of human aromatase extracted from placental microsomes using [1,2-3H]androstenedione as substrate after 20 mins by scintillation counting analysis
Aromatase [15] = biological target: T1, Aromatase; test: Time dependent inactivation of human aromatase extracted from placental microsomes using [1,2-3H]androst-4-ene-3,17-dione
Aromatase [16] = biological target: T1, Aromatase; test: Competitive inhibition of human placental aromatase in presence of testosterone
Aromatase [17] = biological target: T1, Aromatase; test: Time dependent inhibition of human aromatase extracted from placental microsomes using [1beta,2beta-3H]androstenedione as substrate by scintillation counting analysis
Aromatase [18] = biological target: T1, Aromatase; test: Irreversible inhibition of human aromatase extracted from placental microsomes by double reciprocal plot analysis in presence of [1beta,2beta-3H]androstenedione
HeLa = test: Cytotoxicity against human HeLa cells after 48 hrs by MTT assay; type: functional, cell-based
[19] = Cytotoxicity against human PC3 cells after 48 hrs by MTT assay; type: functional, cell-based; conditions: PC-3, 48 h
Aromatase [20] = biological target: T1, Aromatase; test: Time dependent inhibition of human aromatase extracted from placental microsomes using [1beta,2beta-3H]-testosterone as substrate after 10 mins by scintillation counting analysis
Aromatase [21] = biological target: T1, Aromatase; test: Inhibition of aromatase (unknown origin) at 5 uM relative to control
Aromatase [22] = biological target: T2, Aromatase; test: Inhibition of aromatase in denucleated ovarian fraction extracted from PMSG pretreated Wistar rat using testosterone as substrate at 50 uM by radioimmuno assay
Aromatase [23] = biological target: T2, Aromatase; test: Inhibition of aromatase in denucleated ovarian fraction extracted from PMSG pretreated Wistar rat by using testosterone as substrate at 1 uM
Aromatase [24] = biological target: T1, Aromatase; test: Inhibition of human aromatase extracted from placental microsomes using [1beta-3H]androstenedione as substrate after 20 mins by radiometric assay
Aromatase [25] = biological target: T1, Aromatase; test: Irreversible inhibition of human aromatase extracted from placental microsomes; conditions: read-out: Ki(app)
[26] = Antitumor activity against NMU-induced mammary tumor in rat; type: functional

C[C@]12CC[C@H]3[C@@H](CCC4=CCCC[C@@]43CO)[C@@H]1CCC2=O
Ki (Aromatase [1]): 12.5 nM

C[C@]12CCC(=O)C(O)=C1C=C[C@@H]1[C@@H]2CC[C@]2(C)/C(=C/c3ccccn3)CC[C@@H]12
inhibition at 50 µM (Aromatase [2]): 92%

C[C@]12CCC(=O)C=C1C(=O)C[C@@H]1[C@@H]2CC[C@]2(C)/C(=C/c3ccccn3)CC[C@@H]12
inhibition at 50 µM (Aromatase [2]): 108%

C[C@]12CCC(=O)C=C1CC[C@@H]1[C@@H]2CC[C@@]2(C)[C@H]1CC[C@@]2(O)Cc1ccccn1
inhibition (INH) (Aromatase [3]): 51.5%

C[C@]12CC[C@H]3[C@@H](Cc4nn(Cc5ccccc5)c5c4[C@]3(C)CCC5=O)[C@@H]1CC[C@@H]2O
IC50 (Aromatase [4]): 245 nM

C[C@]12CC[C@H]3[C@@H](Cc4n[nH]c5c4[C@]3(C)CCC5=O)[C@@H]1CC[C@@H]2O
IC50 (Aromatase [4]): 236 nM

C[C@]12CC[C@@H]3c4ccc(O)cc4CC[C@H]3[C@@H]1CC(=O)OC2
inhibition at 10 µM (Aromatase [5]): 1.5%

C=C1C=C2CC[C@@H]3[C@H](CC[C@]4(C)C(=O)CC[C@@H]34)[C@@]2(C=O)CC1
inhibition (INH) (Aromatase [6]): 50%

C=C1C=C2CC[C@@H]3[C@H](CC[C@]4(C)C(=O)CC[C@@H]34)[C@@]2(CO)CC1
inhibition (INH) (Aromatase [6]): 80%

C[C@]12C=CC(=O)C=C1CC[C@@H]1[C@@H]2CC[C@]2(C)C(=O)/C(=C/c3ccc4c(c3)OCO4)C[C@@H]12
IC50 (Aromatase [7]): 6400 nM

CSCC[C@]12CCC(=O)C=C1CC[C@@H]1C2=CC[C@]2(C)C(=O)CC[C@@H]12
IC50 (Aromatase [8]): 12 nM

COc1cc(/C=C2\C[C@H]3[C@@H]4CCC5=CC(=O)CC[C@]5(C)[C@H]4CC[C@]3(C)C2=O)ccc1OCCCn1ccnc1
IC50 (Aromatase [9]): 4400 nM

CC(=O)[C@@]1(C)CC[C@H]2[C@@H](CCC3=CC(=O)CC[C@@]32C)C1CC#N (stereo partly drawn)
Ki (Aromatase [10]): 270 nM
inhibition (INH) (Aromatase [11]): 46.5%

C[C@]12CC=C3[C@@H](CCC4=CC(=O)CC[C@@]43CCSCF)[C@@H]1CCC2=O
IC50 (Aromatase [8]): 50 nM

C[C@]12C=CC(=O)C=C1C=C[C@@H]1[C@@H]2CC[C@@]2(C)[C@H]1CC[C@@]2(O)Cc1ccccn1
inhibition (INH) (Aromatase [3]): 51.5%

C[C@]12CC[C@H](O)C(N=[N+]=[N-])=C1CC[C@@H]1[C@@H]2CC[C@]2(C)/C(=N/O)CC[C@@H]12
INH (Aromatase [12]): 32.8%

C[C@@H]1OC(=O)C[C@H]2[C@@H]3CCC4=CC(=O)CC[C@]4(C)[C@H]3CC[C@]12C
IC50 (Aromatase [13]): 280 nM

C[C@]12CCC(=O)C=C1[C@@H](OC(=O)CBr)C[C@@H]1[C@@H]2CC[C@]2(C)C(=O)CC[C@@H]12
IC50 (Aromatase [14]): 2800 nM

C[C@]12CC[C@H]3[C@@H](CCC4=CC(=O)CC[C@@]43C(F)F)[C@@H]1CCC2=O
Ki (Aromatase [15]): 1000 nM

C[C@]12CCC(=O)C3=C1C(=Nc1ccccc1S3)C[C@@H]1[C@@H]2CC[C@]2(C)C(=O)CC[C@@H]12
IC50 (Aromatase [16]): 42300 nM

C[C@]12CC[C@H]3[C@@H](CCC4=CC(=O)CC[C@@]43CS)[C@@H]1CCC2=O
Ki (Aromatase [17]): 34 nM

C[C@@H]1OC(=O)C[C@H]2[C@@H]3C=C[C@H]4C[C@@H](O)CC[C@]4(C)[C@H]3CC[C@]12C
IC50 (Aromatase [13]): 250 nM

C[C@]12CC[C@H]3[C@@H](CCC4=CC(=O)CC[C@@]43S)[C@@H]1CC[C@@H]2O
Ki (Aromatase [18]): 106 nM

C=C1C[C@@H]2[C@H]([C@H](O)C[C@]3(C)C(=O)CC[C@@H]23)[C@@]2(C)C=CC(=O)C=C12
IC50 (HeLa): 16800 nM
IC50 [19]: 24900 nM

CS[C@]12C=CC(=O)C=C1CC[C@H]1[C@@H]3CC[C@H](O)[C@@]3(C)CC[C@@H]12
Ki (Aromatase [20]): 610 nM

CC(=O)O[C@H]1CC[C@@]2(C)C(=CC[C@H]3C(CC#N)[C@@](C)(CBr)CC[C@@H]32)C1 (stereo partly drawn)
inhibition at 5 µM (Aromatase [21]): 19.4%

C[C@]12CC[C@@H]3c4ccc(OCc5ccccc5)cc4CC[C@H]3[C@@H]1CC(=O)OC2
inhibition at 50 µM (Aromatase [22]): 26.7%

C[C@]12CCC(=O)C(O)=C1CC[C@@H]1[C@@H]2CC[C@]2(C)C(=O)CC[C@@H]12 [FORMESTANE]
inhibition at 1 µM (Aromatase [23]): 99.2%
IC50 (Aromatase [24]): 1200 nM
Ki (Aromatase [25]): 43 nM
Activity [26]: 67%
